2 molecules from patent EP1477171A1, “Intestinal mineral absorption capacity improver” (Kao Corporation, priority 2003, dated 2004) can be followed below.

Series [1] is described as follows: pH of a 2 mass% aqueous solution. Type of series: physicochemical.
The test system of series [2] is SD rats. Put plainly: 45Ca level in blood plasma after oral 45Ca calcium chloride in rats fed the test diet for 10 days (intestinal calcium absorption capacity). Format: in vivo. The settings on record: test diet (1.88 mass% in feed, 15 g/day, 10 days) vs control diet; 24 h fast; plasma 30 minutes, 1 hour and 2 hours after oral ^45Ca calcium chloride; Scheffe method, significant level less than 1%. The procedure:
Rats (8-week-old, male, SD rats), 10 rats consisting of one group, were each fed with 15 g/day of a control diet or a glucose 1-phosphate sodium salt diet as shown in Table 1 for 10 days. As the glucose 1-phosphate sodium salt, product of Solchem (Italy) was employed and the feed was adjusted to have a calcium concentration of 0.2 mass% and a P concentration of 0.4 mass%. The rats were allowed to take distilled water ad libitum.
After the rats were fasted for 24 hours, they were orally administered with 1.5 mL (containing ^45CalµCi), per average weight, of a 1 mg/mL calcium chloride solution containing ^45Ca singly. The blood plasma was obtained from about 0.5 mL of the blood collected from their carotid artery 30 minutes, 1 hour and 2 hours after administration. The ^45Ca level in 100 µL of the blood plasma was measured by a liquid scintillation counter.
A change in the ^45Ca level in 100 µL of the blood plasma separated from the […] 30 minutes, 1 hour and 2 hours after the administration of a ^45Ca-containing calcium chloride solution was statically analyzed by the Scheffe method. […]

Series [3] has as its system SD rats. Put plainly: duration of the intestinal calcium absorption capacity improving effect after feeding is terminated (45Ca level in plasma). Format: in vivo. The settings on record: test diet 10 days, then control diet; for 3 days after termination; relative to the control group. The source says: As in Example 1, 15 g/day of a control diet and a test diet as shown in Table 1 were fed to groups of rats (8-week-old, male, SD rats), each group consisting of 8 rats, for 10 days, respectively. The rat groups fed with the test diet were divided into three groups and as the feed after 10 days, the control diet was fed to each group and feeding of the glucose 1-phosphate sodium salt was terminated. The termination period was 1 day, 3 days and 7 days. The ^45Ca level in the blood plasma after completion of the feeding period was measured in accordance with the method of Example 1.

glucose 1-phosphate sodium salt: in series [1], the “pH of a 2 mass% aqueous solution” value is recorded as “about 8.0”. Further, the “^45Ca level in the blood plasma” value in the series on SD rats [2] was “statistically significant increase”. For the same molecule, the “^45Ca level in the plasma after feeding was terminated” value in the series with SD rats [3] is recorded as “significant increase”.

For the molecule `O=P(O)(O)OC1O[C@H](CO)[C@@H](O)[C@H](O)[C@H]1O` (stereo partly shown) [Glucose-1-phosphoric acid, reference compound], the “pH of a 2 mass% aqueous solution” value in series [1] was 1.5.
